Reference: ChEMBL document CHEMBL5518176, “Identification of novel aminopyrimidine derivatives for the treatment of mutant NSCLC” (Eur J Med Chem, 2024)
Active and inactive are the calls of the source. The calls are words filed in the database; no cut-off is given here.

What was measured:
A549 = test: Antiproliferative activity against human A549 cells assessed as inhibition of cell growth incubated for 72 hrs by MTT assay; type: functional, cell-based; details: A549, 72 h
BaF3 [1] = test: Antiproliferative activity against mouse BaF3 cells harboring EGFR Del19/T790M/C797S triple mutant assessed as inhibition of cell growth incubated for 72 hrs by CellTiter-Glo luminescent assay; type: functional, cell-based; details: BaF3, 72 h
BaF3 [2] = test: Antiproliferative activity against mouse BaF3 cells harboring EGFR L858R/T790M/C797S triple mutant assessed as inhibition of cell growth incubated for 72 hrs by CellTiter-Glo luminescent assay; type: functional, cell-based; details: BaF3, 72 h
NCI-H1975 [3] = test: Antiproliferative activity against human NCI-H1975 cells harboring EGFR L858R/T790M/C797S triple mutant assessed as inhibition of cell growth incubated for 72 hrs by CellTiter-Glo luminescent assay; type: functional, cell-based; details: NCI-H1975, 72 h
NCI-H1975 [4] = test: Antiproliferative activity against human NCI-H1975 cells harboring EGFR L858R/T790M double mutant assessed as inhibition of cell growth incubated for 72 hrs by MTT assay; type: functional, cell-based; details: NCI-H1975, 72 h
BaF3 [5] = test: Antiproliferative activity against mouse BaF3 cells harboring wildtype EGFR assessed as inhibition of cell growth incubated for 72 hrs by CellTiter-Glo luminescent assay; type: functional, cell-based; details: BaF3, 72 h
NCI-H1975 [6] = test: Induction of apoptosis in human NCI-H1975 cells harboring EGFR L858R/T790M/C797S triple mutant assessed as viable cells at 0.8 uM incubated for 48 hrs by Annexin V-FITC/PI staining based flow cytometric analysis (reference value: 98.3 %); type: functional; details: read-out: Activity
NCI-H1975 [7] = test: Induction of apoptosis in human NCI-H1975 cells harboring EGFR L858R/T790M/C797S triple mutant assessed as early apoptotic cells at 0.4 uM incubated for 48 hrs by Annexin V-FITC/PI staining based flow cytometric analysis (reference value: 0.39 %); type: functional
[8] = Antiproliferative activity against human BEAS-2B cells assessed as inhibition of cell growth; type: toxicity, cell-based
NCI-H1975 [9] = test: Induction of apoptosis in human NCI-H1975 cells harboring EGFR L858R/T790M/C797S triple mutant assessed as late apoptotic cells at 1.5 uM incubated for 48 hrs by Annexin V-FITC/PI staining based flow cytometric analysis (reference value: 0.89 %); type: functional
NCI-H1975 [10] = test: Induction of apoptosis in human NCI-H1975 cells harboring EGFR L858R/T790M/C797S triple mutant assessed as necrotic cells at 0.8 uM incubated for 48 hrs by Annexin V-FITC/PI staining based flow cytometric analysis (reference value: 0.42 %); type: functional
NCI-H1975 [11] = test: Induction of apoptosis in human NCI-H1975 cells harboring EGFR L858R/T790M/C797S triple mutant assessed as necrotic cells at 0.4 uM incubated for 48 hrs by Annexin V-FITC/PI staining based flow cytometric analysis (reference value: 0.42 %); type: functional
NCI-H1975 [12] = test: Induction of cell cycle arrest in human NCI-H1975 cells harboring EGFR L858R/T790M/C797S triple mutant at 0.4 to 1.5 uM incubated for 48 hrs by flow cytometric analysis; type: functional, cell-based; details: dose 0.4-1.5 µM
NCI-H1975 [13] = test: Induction of apoptosis in human NCI-H1975 cells harboring EGFR L858R/T790M/C797S triple mutant assessed as viable cells at 1.5 uM incubated for 48 hrs by Annexin V-FITC/PI staining based flow cytometric analysis (reference value: 98.3 %); type: functional; details: read-out: Activity
NCI-H1975 [14] = test: Induction of apoptosis in human NCI-H1975 cells harboring EGFR L858R/T790M/C797S triple mutant assessed as late apoptotic cells at 0.8 uM incubated for 48 hrs by Annexin V-FITC/PI staining based flow cytometric analysis (reference value: 0.89 %); type: functional
NCI-H1975 [15] = test: Induction of apoptosis in human NCI-H1975 cells harboring EGFR L858R/T790M/C797S triple mutant assessed as early apoptotic cells at 0.8 uM incubated for 48 hrs by Annexin V-FITC/PI staining based flow cytometric analysis (reference value: 0.39 %); type: functional
NCI-H1975 [16] = test: Induction of apoptosis in human NCI-H1975 cells harboring EGFR L858R/T790M/C797S triple mutant assessed as necrotic cells at 1.5 uM incubated for 48 hrs by Annexin V-FITC/PI staining based flow cytometric analysis (reference value: 0.42 %); type: functional
NCI-H1975 [17] = test: Induction of apoptosis in human NCI-H1975 cells harboring EGFR L858R/T790M/C797S triple mutant assessed as early apoptotic cells at 1.5 uM incubated for 48 hrs by Annexin V-FITC/PI staining based flow cytometric analysis (reference value: 0.39 %); type: functional
NCI-H1975 [18] = test: Induction of apoptosis in human NCI-H1975 cells harboring EGFR L858R/T790M/C797S triple mutant assessed as viable cells at 0.4 uM incubated for 48 hrs by Annexin V-FITC/PI staining based flow cytometric analysis (reference value: 98.3 %); type: functional; details: read-out: Activity
NCI-H1975 [19] = test: Induction of apoptosis in human NCI-H1975 cells harboring EGFR L858R/T790M/C797S triple mutant assessed as late apoptotic cells at 0.4 uM incubated for 48 hrs by Annexin V-FITC/PI staining based flow cytometric analysis (reference value: 0.89 %); type: functional
NCI-H1975 [20] = test: Antiproliferative activity against human NCI-H1975 cells harboring EGFR L858R/T790M/C797S triple mutant assessed as inhibition of cell growth incubated for 72 hrs in presence of osimertinib by CellTiter-Glo luminescent assay; type: functional, cell-based; details: NCI-H1975, 72 h

Row | Structure (SMILES) | IC50 (A549) [µM] | IC50 (BaF3 [1]) [µM] | IC50 (BaF3 [2]) [µM] | IC50 (NCI-H1975 [3]) [µM] | IC50 (NCI-H1975 [4]) [µM] | also measured
1 | Nc1cc(Nc2ccc(NC(=O)C(c3ccccc3)N3Cc4cc(-c5ccc(N6CCNCC6)cc5)ccc4C3=O)cc2)ncn1 (configuration not stated) | > 20 | 1.52 | 3.96 | > 10 | > 20 | –
2 | COc1nccc(Nc2ccc(NC(=O)C(c3ccccc3)N3Cc4cc(-c5ccc(N6CCNCC6)cc5)ccc4C3=O)cc2)n1 (configuration not stated) | 4.88 | – | 0.48 | 2.65 | 3.6 | –
3 | Nc1nccc(Nc2cccc(NC(=O)C(c3ccccc3)N3Cc4cc(-c5ccc(N6CCNCC6)cc5)ccc4C3=O)c2)n1 (configuration not stated) | 2.21 | 0.89 | 1.46 | 4.16 | 3.2 | –
4 | Nc1nccc(Nc2ccc(NC(=O)C(c3ccccc3)N3Cc4cc(-c5ccc(N6CCOCC6)cc5)ccc4C3=O)cc2)n1 (racemic) | > 20 | 1.96 | 1.96 | – | > 20 | –
5 | Nc1nccc(Nc2ccc(NC(=O)C(c3ccccc3)N3Cc4cc(-c5ccc(N6CCCCC6)cc5)ccc4C3=O)cc2)n1 (racemic) | > 20 | 2.58 | 2.08 | – | > 20 | –
6 | CCN(CC)c1ccc(-c2ccc3c(c2)CN(C(C(=O)Nc2ccc(Nc4ccnc(N)n4)cc2)c2ccccc2)C3=O)cc1 (racemic) | 15.7 | 1.19 | 1.19 | – | 11.6 | –
7 | CN1CCN(c2ccc(-c3ccc4c(c3)CN(C(C(=O)Nc3ccc(Nc5ccnc(N)n5)cc3)c3ccccc3)C4=O)cc2)CC1 (racemic) | 12.2 | 0.62 | 0.69 | 1.65 | – | IC50 (BaF3 [5]): 1.5 µM
8 | O=C(Nc1ccc(Nc2ccncc2)cc1)C(c1ccccc1)N1Cc2cc(-c3ccc(N4CCNCC4)cc3)ccc2C1=O (configuration not stated) | 5.2 | – | 1.04 | 2.7 | 3.82 | –
9 | Nc1nccc(Nc2ccc(NC(=O)C(c3ccccc3)N3Cc4cc(-c5ccc(N6CCNCC6)cc5)ccc4C3=O)cc2Cl)n1 (configuration not stated) | 4.2 | 0.86 | 1.44 | 1.55 | 3.32 | –
10 | C=CC(=O)Nc1cc(Nc2nccc(-c3cn(C)c4ccccc34)n2)c(OC)cc1N(C)CCN(C)C [OSIMERTINIB] | […] | 0.75 | 1.12 | […] | […] | IC50 (BaF3 [5]): 0.009 µM
11 | CN1CCN(c2ccc(-c3ccc4c(c3)CN([C@H](C(=O)Nc3ccc(Nc5ccnc(N)n5)cc3)c3ccccc3)C4=O)cc2)CC1 | 7.18 | 0.75 | 0.72 | 1.64 | 2.82 | IC50 (BaF3 [5]): 0.45 µM
12 | Nc1nccc(Nc2ccc(NC(=O)C(c3ccccc3)N3Cc4cc(-c5ccc(N6CCNCC6)cc5)ccc4C3=O)cc2F)n1 (configuration not stated) | 4.52 | 1.72 | 1.42 | 1.53 | 7.8 | –
13 | Nc1nccc(Nc2ccc(NC(=O)C(c3ccccc3)N3Cc4ccccc4C3=O)cc2)n1 (configuration not stated) | > 20 | > 10 | > 10 | > 10 | > 20 | –
14 | Nc1nccc(Nc2ccc(NC(=O)C(c3ccccc3)N3Cc4cc(-c5ccc(N6CCNCC6)cc5)ccc4C3=O)cc2)n1 (configuration not stated) | 0.53 | 0.69 | 0.97 | 1.49 | 3.2 | –
15 | O=C(Nc1ccc(Nc2ccncn2)cc1)C(c1ccccc1)N1Cc2cc(-c3ccc(N4CCNCC4)cc3)ccc2C1=O (configuration not stated) | 5.13 | 2.45 | 2.55 | – | 9.95 | –
16 | Nc1nccc(Nc2ccc(NC(=O)C(c3ccccc3)N3Cc4cc(-c5ccc(N6CCNCC6)cc5)ccc4C3=O)c(F)c2)n1 (configuration not stated) | 1.78 | 0.72 | 1.43 | 1.43 | 2.44 | –
17 | CN1CCN(c2ccc(-c3ccc4c(c3)CN([C@@H](C(=O)Nc3ccc(Nc5ccnc(N)n5)cc3)c3ccccc3)C4=O)cc2)CC1 | 5.14 | 0.41 | 0.42 | 0.82 | 2.95 | viability at 0.8 µM (NCI-H1975 [6]): 86.7%; Activity (NCI-H1975 [7]): 0.59%; IC50 [8]: 5.12 µM; Activity (NCI-H1975 [9]): 12.15%; Activity (NCI-H1975 [10]): 0.69%; Activity (NCI-H1975 [11]): 0.51%; Activity (NCI-H1975 [12]): inactive; viability at 1.5 µM (NCI-H1975 [13]): 85.3%; IC50 (BaF3 [5]): 0.41 µM; Activity (NCI-H1975 [14]): 11.16%; Activity (NCI-H1975 [15]): 1.45%; Activity (NCI-H1975 [16]): 0.73%; Activity (NCI-H1975 [17]): 1.83%; viability at 0.4 µM (NCI-H1975 [18]): 97.3%; Activity (NCI-H1975 [19]): 1.64%
18 | Nc1cc(Nc2ccc(NC(=O)C(c3ccccc3)N3Cc4ccccc4C3=O)cc2)ncn1 (configuration not stated) | > 20 | > 10 | > 10 | > 10 | > 20 | –
19 | Cc1nccc(Nc2ccc(NC(=O)C(c3ccccc3)N3Cc4cc(-c5ccc(N6CCNCC6)cc5)ccc4C3=O)cc2)n1 (configuration not stated) | 3.97 | – | 0.93 | 2.69 | 4.75 | –
20 | Nc1nccc(Nc2ccc(NC(=O)C(c3ccccc3)N3Cc4cc(-c5ccc(N6CCNCC6)cc5)ccc4C3=O)c(Cl)c2)n1 (configuration not stated) | 3.96 | 0.86 | 1.24 | 2.32 | 4.4 | –
21 | Nc1nccc(Nc2ccc(NC(=O)C(c3ccccc3)N3Cc4ccc(-c5ccc(N6CCNCC6)cc5)cc4C3=O)cc2)n1 (configuration not stated) | 4.02 | 1.21 | 1.28 | 1.64 | 2.93 | –
22 | O=C(Nc1nccs1)[C@@H](c1cc(F)ccc1O)N1Cc2ccc(-c3ccc(N4CCNCC4)cc3)cc2C1=O | – | – | – | 3.66 | – | IC50 (NCI-H1975 [20]): 1.25 µM
